# Assay results taken from paper PMC9739371, “Deciphering the Binding of the Nuclear Localization Sequence of Myc Protein to the Nuclear Carrier Importin α3” (International Journal of Molecular Sciences, 2022).
# Assay: Translational diffusion NMR (DOSY)
# Format: physicochemical
# Details: 500 MHz, 10 °C, 1.8 mM peptide, 100 mM sodium phosphate pH 7.0, 100% D2O, 1% dioxane as reference
# Procedure: The NMR spectra were acquired at 10 °C on a Bruker Avance 500 MHz spectrometer (Bruker GmbH, Karlsruhe, Germany), equipped with a triple resonance probe and z-pulse field gradients. Spectra were processed with Bruker TopSpin 2.1 (Bruker GmbH, Karlsruhe, Germany). […] Spectra were calibrated with 3-(trimethylsilyl) propionic acid-2,2,3,3-^2H4-sodium salt (TSP), by considering pH-dependent changes of its chemical shifts; the probe temperature was calibrated with pure methanol [49].
# Measurements of the translational self-diffusion coefficient, D, were performed with the pulsed-gradient spin-echo sequence in the presence of 100% D2O. […] The gradient strength was varied in sixteen linear steps between 2% to 95% of the total power of the gradient coil. Gradient strength was calibrated by using the value of D for the residual proton water signal in a sample containing 100% D2O, in a 5-mm tube [51]. The length of the gradient was 2.5 ms; the time between two pulse gradients in the pulse sequence was 250 ms; and the recovery delay between the bipolar gradients was 100 µs. […] A final concentration of 1% of dioxane, which was assumed to have a hydrodynamic radius Rh = 2.12 Å [51], was added to the solution.
structure (smiles),measurement,value
C1COCCO1 [dioxane],translational diffusion coefficient D,5.3 ± 0.6 × 10^−6 cm^2 s^−1
